Publication PMC5765747 (Advanced materials (Deerfield Beach, Fla.), 2017)
Values after ≈ are worked out from the molar mass of the structure shown. Where a SMILES comes first, the peptide text is derived from it. Bridges are numbered along the chain shown (N, C = ends). [ ]: non-standard residue; d: D form. The star is where a group is joined. X1 = CC[C@H](C)CCCCC(=O)*; Dab = NCC[C@H](N)C(=O)O

System: P. aeruginosa PA01
Test: Overnight culture growth assay
Format: cell-based

In the case of D[KLAKLAK]2 [dKK], the “inhibitory activity against P. aeruginosa in screening range” value (peptide concentration range 0 – 5 µM, Figure S1) is reported as “no activity”.
For `CC[C@H](C)CCCCC(=O)N[C@@H](CCN)C(=O)N[C@H](C(=O)N[C@@H](CCN)C(=O)N[C@H]1CCNC(=O)[C@H]([C@@H](C)O)NC(=O)[C@H](CCN)NC(=O)[C@H](CCN)NC(=O)[C@H](CC(C)C)NC(=O)[C@@H](CC(C)C)NC(=O)[C@H](CCN)NC1=O)[C@@H](C)O` [colistin] (X1-[Dab]T[Dab][Dab][Dab][dL]L[Dab][Dab]T; lactam 4-C (inferred); N-terminus assumed), the MIC (P. aeruginosa in LB, 2×10^6 CFU/ml, turbidity at 600 nm) was 0.25 µg/mL (≈ 0.214 µM).
